Reference: a melting point compilation (Tetko et al.; mined from patent text by program, amines drawn as free bases though some values may be those of a salt)

Row | melting point | SMILES
1 | 125 to 127 °C | OC1CC(NCc2ccccc2)c2ccccc21 (configuration not stated)
2 | 100 to 103 °C | COC(=O)c1c(NCC(C)C)n[nH]c1C
3 | 209 to 210 °C | Cc1nc2ccc3cnc(N(C)c4cccc([N+](=O)[O-])c4)nc3c2s1
4 | 98 to 99 °C | CCOC(=O)/C=C/c1c(C)nn(Cc2ccc(OCc3nc(-c4ccccc4)oc3C)cc2)c1C
5 | 182 to 184 °C | CC(=O)Nc1ccc2nc(CN3CCCCC3)ccc2c1
6 | 178 to 179 °C | CNS(=O)(=O)C[C@H]1c2cc(OCCCC(F)(F)F)ccc2OC(C)(C)[C@@H]1O
7 | 215 to 222 °C | COc1cc2c(cc1OC)S(=O)(=O)N(C)C(C(N)=O)C2 (configuration not stated)
8 | 37 to 38 °C | CN(C)CCCCCCOc1ccc(C(=O)c2ccc(F)cc2)cc1
9 | 188 °C | O=C(Nc1cc(OCCCON=Cc2ccc(-c3ccccc3)cc2)ccc1C(=O)O)c1ccc(OC(F)(F)F)cc1
10 | 250 to 252 °C | CC(=O)Oc1c(C=C(C#N)C#N)n(C(C)=O)c2ccccc12
11 | 197 °C | CC(C)(Oc1ccc(CC(=O)Nc2ccc(C(F)(F)F)cc2)cc1)C(=O)O
12 | 208 °C | COc1cc(C=CC(=O)Nc2ccccc2C(=O)O)ccc1O
13 | 157 °C | CC(C)(C)c1cc(C(c2cccc([N+](=O)[O-])c2)N2CCCCC2)cc(C(C)(C)C)c1O (configuration not stated)
14 | 180 to 182 °C | O=C(O)COC(=O)c1c(Cl)cccc1Cl
15 | 100 to 102 °C | OCCC1CC(n2nnc3c(NC4CC4c4ccccc4)nc(Sc4ccc(C(F)(F)F)cc4)nc32)C(O)C1O (configuration not stated)
16 | 96 to 98 °C | COCCNc1c([N+](=O)[O-])cc(C(F)(F)F)c2sc(=O)sc12
17 | 183 °C | Cc1nc2n(c(=O)c1CCN1CCC(c3noc4ccccc34)CC1)CCCC2
18 | 159 to 160 °C | O=C(NCCO)/C(=C/c1ccc(OC(F)(F)F)cc1)NC(=O)c1ccc(OCCC(F)(F)F)cc1
19 | 190 to 191 °C | CN(C)CCN(CCN(C)C)c1ccc(-c2nc3ccccc3[nH]2)cc1
20 | 42.5 to 43.5 °C | CCOC(=O)CCc1ccc(OC(C)C)nc1Oc1ccc(Cl)cc1Cl
21 | 196 to 197 °C | CS(=O)(=O)N1CCCC(Nc2nccc(-n3nnc4ccccc43)n2)C1 (configuration not stated)
22 | 110 to 112 °C | O=C(c1ccc(Br)cc1)N(C1CCCCC1)C1CCCC1
23 | 106 °C | NCC(O)COc1cccc2ccccc12 (configuration not stated)

Row | melting point | SMILES
24 | 156 to 158 °C | O=C1CCCc2nc3cc(Cl)ccc3c(NCc3ccc(F)cc3)c21
25 | 149 to 151 °C | CCOC(=O)C1=C(Nc2ccccc2)CN(C(=O)c2ccccc2)C1
26 | 132 to 134 °C | CCN1CCN=C1c1ccccc1C(=O)c1ccc(Cl)cc1
27 | 175 to 176 °C | O=C(NC1CCC1)c1ccc2nonc2c1
28 | 139 to 140 °C | CC(=O)Nc1cc(C)cc(OCc2ccccc2)c1C
29 | 89 to 90 °C | CN(CCOc1ccc(CCOCCc2ncno2)cc1)c1nc2ccccc2o1
30 | 68.5 to 69 °C | COc1cc(C2=C(C(C)(C)C)C(C)(C)CO2)cc2oc(-c3ccccc3)nc12
31 | 158 to 160 °C | CC(=O)c1ccc(OCCOc2ccc3ccccc3c2)c([N+](=O)[O-])c1
32 | 261 to 262 °C | OCc1ccc2c(ccc3c4ccccc4ccc23)c1
33 | 85 °C | C=CCOc1ccc(OC(C(O)C(C)(C)C)n2cncn2)cc1 (configuration not stated)
34 | 231 to 233 °C | N#CCCNC(=O)c1n[nH]cc1NC(=O)c1cc2ccccc2o1
35 | 146 to 149 °C | O=C(c1ccc(O)cc1)c1c(Cc2ccccc2)oc2ccccc12
36 | 105 to 106 °C | Cc1nc2c3c(ccn2c1C)[C@@H](OCCS(C)=O)[C@H](O)[C@@H](c1ccccc1)N3 (some centres not stated)
37 | 148 to 151 °C | CC(C)CCC(=O)N[C@@H](CC(C)C)C(=O)N[C@@H](C(C)C)[C@@H](O)c1c(-c2ccccc2)c1=O
38 | 186 to 188 °C | COc1cc(OC)c(-c2nc(N3CC(C)NC(C)C3)c3c(C)c(C#N)sc3n2)cc1OC (configuration not stated)
39 | 168 to 169 °C | Cn1cccc1C1=C(Cl)C(=O)c2cccnc2C1=O
40 | 128 to 131 °C | Cc1cccc(-c2[nH]c(C(C)C)nc2-c2cccc(-c3ccc4c(c3)CCS4(=O)=O)c2)n1
41 | 76 to 78 °C | CCc1ccccc1NC(Nc1ccccc1CC)Nc1ccccc1CC
42 | 75 to 76 °C | CCNC(=O)CCc1cnoc1-c1ccccc1
43 | 132 to 133 °C | CNC(=O)C(=NOC)c1ccccn1
44 | 191 to 193 °C | Oc1ccc2cc(-c3csc(Cc4c(Cl)cccc4Cl)n3)ccc2c1
45 | 72.2 to 73.9 °C | [N-]=[N+]=NCC(O)COc1ccc(-c2ccccc2)cc1 (configuration not stated)
46 | 91 to 92 °C | COC(=O)c1ccc(N2CCNCC2)nc1

Row | melting point | SMILES
47 | 172 to 174 °C | CCOC(=O)c1c(Cc2nc[nH]n2)nc2sc3cnccc3c2c1-c1ccc(OC)c(OC)c1
48 | 71 to 72 °C | Clc1ccc2c(c1)CCC(c1ccccc1)O2 (configuration not stated)
49 | 202 to 204 °C | COc1cc(CC(C#N)=CNc2ccccc2)cc(OC)c1N(C)C(C)=O
50 | 142 °C | O=CN[C@H]1CC[C@H](CCN2CCC(c3cccc4c3CCO4)CC2)CC1
51 | 185 to 187 °C | N#CC(C(=O)NC1CCCCC1)=C1Nc2ccccc2O1
52 | 197 °C | O=C(Nc1ccc(F)c(NC(=S)Nc2cc(Cl)cc(Cl)c2)c1)c1ccc(F)c(F)c1
53 | 153 to 155 °C | CC(C)(C)c1cc(CCC(=O)Nc2ccc(S(=O)(=O)NCCBr)cc2)cc(C(C)(C)C)c1O
54 | 177 to 179 °C | COc1ccc(-c2nc(Sc3ccccc3)[nH]c2-c2ccc(OC)cc2)cc1
55 | 74 to 75 °C | COc1ccc2cc(C(=O)[C@H](C)OS(=O)(=O)c3ccccc3)ccc2c1
56 | 235 to 237 °C | CCOC(=O)c1cc(CCC2CNc3nc(NC(=O)C(C)(C)C)nc(O)c3C2)[nH]n1 (configuration not stated)
57 | 66 to 67 °C | Cc1cccc(-c2nn(C)cc2-c2ccc(F)c(-c3ccc(S(C)(=O)=O)cc3)c2)n1
58 | 166 to 168 °C | COc1cc(CCl)ccc1OCc1nc(-c2cccc([N+](=O)[O-])c2)oc1C
59 | 125 to 130 °C | COc1cc(C=S2C=CN=C2N)c([N+](=O)[O-])cc1OC (configuration not stated)
60 | 173 °C | O=[N+]([O-])c1c(Cl)cc(Cl)cc1-c1n[nH]cc1Cl
61 | 108 °C | O=C1CCN(CCCN2c3cccc4cccc(c34)S2(=O)=O)CC1
62 | 105 to 106 °C | Cc1nnc(COc2ccc([N+](=O)[O-])cc2)o1
63 | 147 to 148 °C | Clc1cc2c(cc1Cl)OCCO2
64 | 101 °C | CCOCc1nc2c(N)nc3ccccc3c2n1CCCCS(=O)(=O)NCc1ccc(OC)cc1
65 | 215 to 218 °C | COc1cc(C(=O)NS(=O)(=O)c2ccccc2C)ccc1Cc1cn(CC(=O)N(C)C)c2ccc(NC(=O)CC3CCCC3)cc12
66 | 168 to 172 °C | COC(=O)c1nc(-c2ccc(Cl)c(OC)c2F)cc(NC(C)=O)c1O
67 | 201 to 203 °C | CN(C)CCNc1nc(C(=O)Nc2nc3ccc(C#N)cc3s2)cs1
68 | 202 to 203 °C | O=C(Nc1cccc(C(F)(F)F)c1)c1cc(-c2ccc(F)cc2F)ccc1O
69 | 140 °C | CC(C)(C)C(=O)N[C@@H](CS)C(=O)O

Row | SMILES | melting point
70 | CP(=O)(O)CC(=O)CN | 148 to 149 °C
71 | Brc1ccsc1Cc1c[nH]cn1 | 212 to 214 °C
72 | Cc1ccc2[nH]c(=O)n(C3CCNCC3)c2c1 | > 300 °C
